Blank lines part the entries; values can stand above or below the compound they belong to. Numbered stars: 1 amine (or outer) side, 2 acyl side, 3 side chain; on linkers, the order of the positions; unused ones are H or OH. Square brackets hold non-standard residues; d marks the D form. Peptide text beside a SMILES is read from it. * marks the point of attachment. DOTA = O=C(O)CN1CCN(CC(=O)O)CCN(CC(=O)*)CCN(CC(=O)O)CC1; Leuψ(CH2N)ThzNH2 = CC(C)C[C@@H](CN1CSC[C@H]1C(N)=O)N*; X1 = O=C(CN1CCC(N[*:1])CC1)[*:2]; Tle = CC(C)(C)[C@H](N)C(=O)O
How the values were obtained:
[1] = in vivo; details: male, NRG, mouse, iv, total radioactivity
Method: (§1) All imaging and biodistribution studies were performed using male NOD.Cg-Rag1^tm1MoM II2rg^tm1WI/SzJ (NRG) mice and conducted according to the guidelines established by the Canadian Council on Animal Care and approved by Animal Ethics Committee of the University of British Columbia. For tumor inoculations, mice were anesthetized by inhalation with 2% isoflurane in oxygen and implanted subcutaneously with 5×10^6 PC-3 cells below the left shoulder. Imaging and biodistribution studies were performed only after tumors grew to 5-8 mm in diameter.
(§2) For PET/CT imaging studies, ˜3-4 MBq of the ^68Ga-labeled tracer was injected through the tail vein. Mice were allowed to recover and roam freely in the cages after injecting the tracer. At 45 min post-injection (p.i.), mice were sedated again and positioned on the scanner. First, a 10 min CT scan was conducted for localization and attenuation correction for reconstruction of PET images, before a 10 min PET image was acquired. Heating pads were used during the entire procedure to keep the mice warm. For ex vivo biodistribution studies, mice were injected with ˜1.5-3 MBq of the ^68Ga-labeled tracer. At 1 h p.i., mice were euthanized, blood was drawn from heart, and organs/tissues of interest were collected, rinsed with PBS, blotted dry, weighed, and counted using an automated gamma counter. The uptake in each organ/tissue was normalized to the injected dose and expressed as the percentage of the injected dose per gram of tissue (% ID/g).
(§3) All imaging and biodistribution studies were performed using male NOD.Cg-Rag1tm1Mom II2rgtm1WjI/SzJ (NRG) mice and conducted according to the guidelines established by the Canadian Council on Animal Care and approved by Animal Ethics Committee of the University of British Columbia. For tumor inoculations, mice were anesthetized by inhalation with 2% isoflurane in oxygen and implanted subcutaneously with 5×10^6 PC-3 cells below the left shoulder. Imaging and biodistribution studies were performed only after tumors grew to 5-8 mm in diameter.
(§4) For PET/CT imaging studies, ˜5 MBq of the ^68Ga-labeled tracer was injected through the tail vein. Mice were allowed to recover and roam freely in the cages after injecting the tracer. At 45 min post-injection (p.i.), mice were sedated again and positioned on the scanner. First, a 10 min CT scan was conducted for localization and attenuation correction for reconstruction of PET images, before a 10 min PET image was acquired. Heating pads were used during the entire procedure to keep the mice warm. For ex vivo biodistribution studies, mice were injected with ˜3 MBq of the 68Ga-labeled tracer. At 1 h p.i., mice were euthanized, blood was drawn from heart, and organs/tissues of interest were collected, rinsed with PBS, blotted dry, weighed, and counted using an automated gamma counter.

[2] = Ex vivo biodistribution in PC-3 tumor-bearing mice; details: male, NRG, mouse, iv, total radioactivity, 1 h post-injection, mice bearing PC-3 tumor xenografts, n = 4
Method: as §1, §2, §3, §4

[3] = target: T1, GRPR (Homo sapiens, UniProt P30550); assay: In vitro competition binding assay, displacement of [^125I-Tyr^4]bombesin on GRPR-expressing PC-3 cells; details: n = 2-3, read-out: Binding affinities Ki Mean
T1 construct: endogenous in cells; host or cells: PC-3 prostate cancer cells
T1 sequence (P30550 whole entry): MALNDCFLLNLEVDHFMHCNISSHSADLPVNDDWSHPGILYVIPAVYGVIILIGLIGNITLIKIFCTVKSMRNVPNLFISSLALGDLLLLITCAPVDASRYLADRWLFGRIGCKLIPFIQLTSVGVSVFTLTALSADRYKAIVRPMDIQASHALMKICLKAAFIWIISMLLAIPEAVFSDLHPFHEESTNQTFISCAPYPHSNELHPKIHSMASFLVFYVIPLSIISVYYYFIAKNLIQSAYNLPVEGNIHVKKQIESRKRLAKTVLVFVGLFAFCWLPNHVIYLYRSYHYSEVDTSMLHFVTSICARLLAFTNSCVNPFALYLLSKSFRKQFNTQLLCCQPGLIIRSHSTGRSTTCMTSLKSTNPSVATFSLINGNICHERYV
Method: PC-3 cells were seeded at 2×10^5 cells/well in 24-well poly-D-lysine plates 24-48 hours prior to the experiment. The growth medium was replaced by 400 μL of reaction medium (RPMI 1640 containing 2 mg/mL BSA, 4.8 mg/mL HEPES, 1 U/mL penicillin G and 1 μg/mL streptomycin). Cells were incubated for 30-60 min at 37° C. […] The cells were incubated with moderate agitation for 1 h at 27° C., washed twice with ice-cold PBS, harvested by trypsinization, and measured for radioactivity on the gamma counter. Data were analyzed using nonlinear regression (one binding site model for competition assay) with GraphPad Prism 8.
In vitro competition binding assays were performed according to the procedure outlined in Example 1.

[4] = Biodistribution Large Intestine Mean
[5] = Biodistribution Small Intestine Mean
[6] = seminal, Biodistribution Seminal Mean

SMILES: CC(C)C[C@@H](CN1CSC[C@H]1C(N)=O)NC(=O)[C@H](Cc1c[nH]cn1)NC(=O)CNC(=O)[C@@H](NC(=O)[C@H](C)NC(=O)[C@H](Cc1c[nH]c2ccccc12)NC(=O)[C@H](CCC(N)=O)NC(=O)[C@@H](Cc1ccccc1)NC(=O)CN1CCC(NC(=O)CN2CCN(CC(=O)O)CCN(CC(=O)O)CCN(CC(=O)O)CC2)CC1)C(C)(C)C [^68Ga-LW01158, metal not drawn] ({DOTA}-[X1][dF]QWA[Tle]GH-{Leuψ(CH2N)ThzNH2})
tissue uptake at 1 h ([1]; Biodistribution Adrenal Mean): 1.37 %ID/g | tissue uptake at 1 h ([1]; Biodistribution Blood Mean): 1.14 %ID/g | tissue uptake at 1 h ([1]; Biodistribution Bone Mean): 0.13 %ID/g | tissue uptake at 1 h ([1]; Biodistribution Brain Mean): 0.03 %ID/g | tissue uptake at 1 h ([1]; Biodistribution Fat Mean): 0.07 %ID/g | tissue uptake at 1 h ([1]; Biodistribution Heart Mean): 0.34 %ID/g | tissue uptake at 1 h ([1]; Biodistribution Kidneys Mean): 2.98 %ID/g | tissue uptake at 1 h [1, 4]: 1.41 %ID/g | tissue uptake at 1 h ([1]; Biodistribution Liver Mean): 4.33 %ID/g | tissue uptake at 1 h ([1]; Biodistribution Lungs Mean): 1.19 %ID/g | tissue uptake at 1 h ([1]; Biodistribution Muscle Mean): 0.2 %ID/g | tissue uptake at 1 h [1, 5]: 2.46 %ID/g | tissue uptake at 1 h ([1]; Biodistribution Spleen Mean): 0.6 %ID/g | tissue uptake at 1 h ([1]; Biodistribution Stomach Mean): 1.3 %ID/g | tissue uptake at 1 h ([1]; Biodistribution Testes Mean): 0.24 %ID/g | tissue uptake at 1 h ([2]; PC-3 tumor, Biodistribution PC3 tumor Mean): 11.2 %ID/g | tissue uptake at 1 h ([2]; pancreas, Biodistribution Pancreas Mean): 12 %ID/g | tissue uptake at 1 h [2, 6]: 0.15 %ID/g

SMILES: CC(C)C[C@H](NC(=O)[C@H](Cc1c[nH]cn1)NC(=O)CNC(=O)[C@@H](NC(=O)[C@H](C)NC(=O)[C@H](Cc1csc2ccccc12)NC(=O)[C@H](CCC(N)=O)NC(=O)[C@H](N)Cc1ccccc1)C(C)C)C(=O)N1CSC[C@H]1C(N)=O [LW02015] (HELM PEPTIDE1{[dF].Q.[O=C([C@H](Cc1csc2ccccc12)N[*:1])[*:2]].A.V.G.H.L.[O=C([C@@H]1CSCN1[*:1])[*:2]].[am]}$$$$V2.0)
Ki [3]: 53.1 nM

SMILES: Cc1cccc2[nH]cc(C[C@H](NC(=O)[C@H](CCC(N)=O)NC(=O)[C@H](N)Cc3ccccc3)C(=O)N[C@@H](C)C(=O)N[C@H](C(=O)NCC(=O)N[C@@H](Cc3c[nH]cn3)C(=O)N[C@@H](CC(C)C)C(=O)N3CSC[C@H]3C(N)=O)C(C)C)c12 [LW01183]
Ki [3]: 25.9 nM

SMILES: CC(C)C[C@H](NC(=O)[C@H](Cc1c[nH]cn1)N(C)C(=O)CNC(=O)[C@@H](NC(=O)[C@H](C)NC(=O)[C@H](Cc1c[nH]c2ccccc12)NC(=O)[C@H](CCC(N)=O)NC(=O)[C@@H](Cc1ccccc1)NC(=O)CN1CCC(NC(=O)CN2CCN(CC(=O)O)CCN(CC(=O)O)CCN(CC(=O)O)CC2)CC1)C(C)C)C(=O)N1CSC[C@H]1C(N)=O [^68Ga-LW01107, metal not drawn]
tissue uptake at 1 h ([1]; Biodistribution Blood Mean): 0.3 %ID/g | tissue uptake at 1 h ([1]; Biodistribution Bone Mean): 0.06 %ID/g | tissue uptake at 1 h ([1]; Biodistribution Brain Mean): 0.01 %ID/g | tissue uptake at 1 h ([1]; Biodistribution Fat Mean): 0.05 %ID/g | tissue uptake at 1 h ([1]; Biodistribution Heart Mean): 0.11 %ID/g | tissue uptake at 1 h ([1]; Biodistribution Kidneys Mean): 1.88 %ID/g | tissue uptake at 1 h [1, 4]: 0.18 %ID/g | tissue uptake at 1 h ([1]; Biodistribution Liver Mean): 0.32 %ID/g | tissue uptake at 1 h ([1]; Biodistribution Lungs Mean): 0.28 %ID/g | tissue uptake at 1 h ([1]; Biodistribution PC3 tumor Mean): 7.05 %ID/g | tissue uptake at 1 h ([1]; Biodistribution Pancreas Mean): 0.39 %ID/g | tissue uptake at 1 h [1, 5]: 0.31 %ID/g | tissue uptake at 1 h ([1]; Biodistribution Spleen Mean): 0.13 %ID/g | tissue uptake at 1 h ([1]; Biodistribution Stomach Mean): 0.07 %ID/g | tissue uptake at 1 h ([1]; Biodistribution Testes Mean): 0.1 %ID/g | tissue uptake at 1 h ([2]; adrenal, Biodistribution Adrenal Mean): 0.32 %ID/g | tissue uptake at 1 h ([2]; muscle, Biodistribution Muscle Mean): 0.07 %ID/g | tissue uptake at 1 h [2, 6]: 0.04 %ID/g

SMILES: CC(C)C[C@H](NC(=O)[C@H](Cc1c[nH]cn1)NC(=O)CNC(=O)[C@@H](NC(=O)[C@H](C)NC(=O)[C@H](Cc1c[nH]c2cc(F)ccc12)NC(=O)[C@H](CCC(N)=O)NC(=O)[C@H](N)Cc1ccccc1)C(C)C)C(=O)N1CSC[C@H]1C(N)=O [LW01175]
Ki [3]: 46.9 nM

The remaining lines, values ahead:

Ki [3]: 11.5 nM
SMILES: Cc1[nH]c2ccccc2c1C[C@H](NC(=O)[C@H](CCC(N)=O)NC(=O)[C@H](N)Cc1ccccc1)C(=O)N[C@@H](C)C(=O)N[C@H](C(=O)NCC(=O)N[C@@H](Cc1c[nH]cn1)C(=O)N[C@@H](CC(C)C)C(=O)N1CSC[C@H]1C(N)=O)C(C)C [LW02009, D-Phe-Gln-2-Me-Trp-Ala-Val-Gly-His-Leu-Thz-NH2]

Ki [3]: 8.77 nM
SMILES: CC(C)C[C@H](NC(=O)[C@H](Cc1cnc[nH]1)NC(=O)CNC(=O)[C@@H](NC(=O)[C@H](C)NC(=O)[C@H](Cc1c[nH]c2ccccc12)NC(=O)[C@H](CCC(N)=O)NC(=O)[C@H](N)Cc1ccccc1)C(C)C)C(=O)N1CSC[C@H]1C(N)=O [LW01085]

Ki [3]: 13.5 nM
SMILES: Cc1cccc2c(C[C@H](NC(=O)[C@H](CCC(N)=O)NC(=O)[C@H](N)Cc3ccccc3)C(=O)N[C@@H](C)C(=O)N[C@H](C(=O)NCC(=O)N[C@@H](Cc3c[nH]cn3)C(=O)N[C@@H](CC(C)C)C(=O)N3CSC[C@H]3C(N)=O)C(C)C)c[nH]c12 [LW02007]

Ki [3]: 9.38 nM
SMILES: CC(C)C[C@H](NC(=O)[C@H](Cc1c[nH]cn1)NC(=O)CNC(=O)[C@@H](NC(=O)[C@H](C)NC(=O)[C@H](Cc1c[nH]c2c(F)cccc12)NC(=O)[C@H](CCC(N)=O)NC(=O)[C@H](N)Cc1ccccc1)C(C)C)C(=O)N1CSC[C@H]1C(N)=O [LW01177, D-Phe-Gln-7-F-Trp-Ala-Val-Gly-His-Leu-Thz-NH2]

Reference: US12246076B2, “Radiolabeled compounds for in vivo imaging of gastrin-releasing peptide receptor (GRPR) and treatment of GRPR-related disorders” (PROVINCIAL HEALTH SERVICES AUTHORITY, priority 2022, dated 2025)
